Converted amounts (≈) assume the structure as drawn.
What was measured:
[1] = target: Mitogen-activated protein kinase 14 (Homo sapiens, UniProt Q16539); assay: Inhibition of p38-alpha by HTRF kinase assay
T-cell [2] = assay: Inhibition of human T cell proliferation by mixed lymphocyte reaction
[3] = target: Tyrosine-protein kinase Lck (Homo sapiens, UniProt P06239)
[4] = target: T1, Tyrosine-protein kinase JAK3 (Homo sapiens, UniProt P52333); assay: Inhibition of Jak3 by HTRF kinase assay
T1 sequence (P52333 whole entry): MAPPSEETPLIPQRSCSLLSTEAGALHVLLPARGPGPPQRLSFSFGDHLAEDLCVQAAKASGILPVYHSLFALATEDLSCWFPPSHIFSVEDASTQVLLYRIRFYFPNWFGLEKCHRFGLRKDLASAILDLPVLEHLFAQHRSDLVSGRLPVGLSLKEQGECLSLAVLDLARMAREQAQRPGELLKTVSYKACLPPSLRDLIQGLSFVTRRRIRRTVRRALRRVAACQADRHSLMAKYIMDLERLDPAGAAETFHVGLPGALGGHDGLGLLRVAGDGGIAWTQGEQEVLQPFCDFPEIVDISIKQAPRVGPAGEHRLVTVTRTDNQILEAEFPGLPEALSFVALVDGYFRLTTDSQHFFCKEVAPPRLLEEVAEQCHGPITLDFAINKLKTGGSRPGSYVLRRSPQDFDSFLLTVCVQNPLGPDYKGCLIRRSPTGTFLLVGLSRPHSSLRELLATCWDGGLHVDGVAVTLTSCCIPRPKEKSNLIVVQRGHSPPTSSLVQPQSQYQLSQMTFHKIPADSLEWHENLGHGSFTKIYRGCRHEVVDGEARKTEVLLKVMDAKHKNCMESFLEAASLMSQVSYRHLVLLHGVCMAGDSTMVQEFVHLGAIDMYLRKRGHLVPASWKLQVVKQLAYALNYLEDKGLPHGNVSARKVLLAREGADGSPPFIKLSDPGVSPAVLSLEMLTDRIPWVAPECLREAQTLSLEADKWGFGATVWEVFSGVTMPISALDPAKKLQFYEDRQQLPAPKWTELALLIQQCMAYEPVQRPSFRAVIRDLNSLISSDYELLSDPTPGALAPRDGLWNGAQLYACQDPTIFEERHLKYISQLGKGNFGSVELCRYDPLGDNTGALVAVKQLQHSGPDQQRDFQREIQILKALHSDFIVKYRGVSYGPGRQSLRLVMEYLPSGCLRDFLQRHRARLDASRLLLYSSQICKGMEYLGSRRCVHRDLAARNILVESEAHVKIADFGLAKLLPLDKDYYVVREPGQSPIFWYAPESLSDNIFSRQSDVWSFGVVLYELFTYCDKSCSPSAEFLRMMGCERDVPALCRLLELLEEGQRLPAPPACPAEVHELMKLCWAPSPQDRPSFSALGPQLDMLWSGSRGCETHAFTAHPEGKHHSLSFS

[5] = target: Vascular endothelial growth factor receptor 2 (Homo sapiens, UniProt P35968); assay: Inhibition of KDR by HTRF kinase assay
Sequence of Vascular endothelial growth factor receptor 2 (P35968 whole entry): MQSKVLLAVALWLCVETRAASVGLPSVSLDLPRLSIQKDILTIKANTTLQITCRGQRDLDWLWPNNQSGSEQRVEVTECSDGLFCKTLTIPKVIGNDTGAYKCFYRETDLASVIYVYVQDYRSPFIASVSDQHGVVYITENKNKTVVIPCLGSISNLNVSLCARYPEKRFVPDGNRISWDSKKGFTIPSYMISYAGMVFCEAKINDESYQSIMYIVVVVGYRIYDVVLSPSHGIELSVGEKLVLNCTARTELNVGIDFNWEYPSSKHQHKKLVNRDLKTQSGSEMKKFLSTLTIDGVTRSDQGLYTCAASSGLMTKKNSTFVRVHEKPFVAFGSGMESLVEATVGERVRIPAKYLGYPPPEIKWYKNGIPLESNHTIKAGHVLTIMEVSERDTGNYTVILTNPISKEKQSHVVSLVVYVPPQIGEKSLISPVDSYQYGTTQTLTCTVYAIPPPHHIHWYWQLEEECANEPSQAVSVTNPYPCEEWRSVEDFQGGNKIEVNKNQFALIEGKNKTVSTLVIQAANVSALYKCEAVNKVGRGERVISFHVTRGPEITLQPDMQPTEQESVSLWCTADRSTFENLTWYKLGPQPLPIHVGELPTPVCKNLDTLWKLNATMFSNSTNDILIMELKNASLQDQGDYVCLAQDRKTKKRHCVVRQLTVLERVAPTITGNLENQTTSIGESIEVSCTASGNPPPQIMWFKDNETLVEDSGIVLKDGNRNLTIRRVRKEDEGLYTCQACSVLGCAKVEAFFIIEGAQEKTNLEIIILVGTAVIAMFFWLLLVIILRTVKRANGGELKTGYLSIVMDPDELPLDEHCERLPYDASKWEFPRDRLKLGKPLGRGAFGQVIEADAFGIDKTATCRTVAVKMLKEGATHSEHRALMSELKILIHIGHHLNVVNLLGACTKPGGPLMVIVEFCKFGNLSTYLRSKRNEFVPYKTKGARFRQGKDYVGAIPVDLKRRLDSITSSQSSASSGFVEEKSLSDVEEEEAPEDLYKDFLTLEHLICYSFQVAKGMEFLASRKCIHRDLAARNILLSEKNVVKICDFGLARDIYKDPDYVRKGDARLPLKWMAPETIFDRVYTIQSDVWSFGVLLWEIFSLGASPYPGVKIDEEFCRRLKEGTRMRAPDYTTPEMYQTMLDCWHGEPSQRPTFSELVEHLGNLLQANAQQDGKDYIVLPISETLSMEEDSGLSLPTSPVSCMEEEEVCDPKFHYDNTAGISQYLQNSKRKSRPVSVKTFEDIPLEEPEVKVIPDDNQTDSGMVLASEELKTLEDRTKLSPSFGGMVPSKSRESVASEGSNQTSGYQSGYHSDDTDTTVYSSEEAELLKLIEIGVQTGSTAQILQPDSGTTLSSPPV

[6] = Solubility in fasted state simulated intestinal fluid at pH 6.8; format: physicochemical; conditions: read-out: Solubility
T-cell [7] = assay: Inhibition of anti CD3/CD28-induced IL2 secretion in human T cells; format: functional, cell-based

Sequence of Tyrosine-protein kinase Lck (P06239 whole entry): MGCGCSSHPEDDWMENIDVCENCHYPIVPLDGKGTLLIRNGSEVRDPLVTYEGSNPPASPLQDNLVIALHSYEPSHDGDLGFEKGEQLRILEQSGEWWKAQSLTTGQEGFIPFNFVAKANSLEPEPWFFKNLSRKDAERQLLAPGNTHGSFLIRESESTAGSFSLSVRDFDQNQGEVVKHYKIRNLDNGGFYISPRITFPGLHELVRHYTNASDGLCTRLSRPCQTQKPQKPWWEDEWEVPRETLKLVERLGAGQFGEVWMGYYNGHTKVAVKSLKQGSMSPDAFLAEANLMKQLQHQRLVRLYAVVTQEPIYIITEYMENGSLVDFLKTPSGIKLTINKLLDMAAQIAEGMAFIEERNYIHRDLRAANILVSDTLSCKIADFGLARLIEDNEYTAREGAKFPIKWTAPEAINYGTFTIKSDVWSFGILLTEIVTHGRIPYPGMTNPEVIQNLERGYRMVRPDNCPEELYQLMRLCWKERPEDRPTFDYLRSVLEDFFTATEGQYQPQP
Sequence of Mitogen-activated protein kinase 14 (Q16539 whole entry): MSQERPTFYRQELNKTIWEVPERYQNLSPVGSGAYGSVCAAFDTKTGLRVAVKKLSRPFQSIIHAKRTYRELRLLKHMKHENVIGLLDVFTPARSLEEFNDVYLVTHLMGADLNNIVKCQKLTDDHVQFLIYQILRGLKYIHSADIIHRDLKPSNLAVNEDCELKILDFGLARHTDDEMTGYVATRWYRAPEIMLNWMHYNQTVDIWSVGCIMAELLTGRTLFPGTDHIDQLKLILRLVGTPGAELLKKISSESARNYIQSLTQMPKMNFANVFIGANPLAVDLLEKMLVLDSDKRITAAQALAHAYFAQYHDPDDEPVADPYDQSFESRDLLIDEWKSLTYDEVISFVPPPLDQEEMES

Row | Structure (SMILES) | IC50 [1] | IC50 (T-cell [2]) | IC50 [3] | IC50 [4] | IC50 [5] | solubility [6] | IC50 (T-cell [7])
1 | CNc1ncc2cc(-c3cc(NC(=O)c4cccc(C(F)(F)F)c4)ccc3C)ccc2n1 | 0.9 nM | 167 nM | 0.3 nM | 154 nM | 5 nM |  | 
2 | CNc1ncc2cc(-c3cc(C(=O)Nc4ccc(Cl)c(C(F)(F)F)c4C)ccc3C)ccc2n1 | 139 nM | 1700 nM | 3 nM | 106 nM | 21 nM |  | 
3 | Cc1ccc(C(=O)Nc2cccc(C(F)(F)F)c2C)cc1-c1ccc2nc(N(C)CCCN3CCOCC3)ncc2c1 | 65 nM | 844 nM | 14 nM | > 25000 nM | 292 nM | > 200 µg/mL | 
4 | Nc1ncc2cc(-c3cc(C(=O)Nc4cccc(C(F)(F)F)c4)ccc3Cl)ccc2n1 |  | 22 nM |  |  |  |  | 
5 | CCN(CC)CC(=O)Nc1ccc(C(F)(F)F)cc1NC(=O)c1ccc(C)c(-c2ccc3nc(NC)ncc3c2)c1 | 76 nM | 427 nM |  | > 8330 nM | 306 nM |  | 
6 | Cc1ccc(C(=O)Nc2cccc(C(F)(F)F)c2C)cc1-c1ccc2nc(NCCN3CCOCC3)ncc2c1 | 40 nM | 357 nM | 3 nM | 626 nM | 15 nM | 175 µg/mL (≈ 318 µM) | 
7 | Cc1cc(F)c(C(=O)Nc2cccc(C(F)(F)F)c2)cc1-c1ccc2nc(N)ncc2c1 |  | 261 nM |  |  |  |  | 
8 | CNc1ncc2cc(-c3cc(Nc4nc5ccc(C(F)(F)F)cc5[nH]4)ccc3C)ccc2n1 | 277 nM |  | 297 nM | > 25000 nM | 1440 nM |  | 
9 | CNc1ncc2cc(-c3cc(C(=O)Nc4cc(C(F)(F)F)ccc4NC(=O)NCCN4CCOCC4)ccc3C)ccc2n1 | 31 nM | 52 nM | 0.4 nM | 722 nM | 47 nM |  | 
10 | CNc1ncc2cc(-c3cc(C(=O)Nc4cc(C(F)(F)F)ccc4N4CCCCC4)ccc3C)ccc2n1 | 168 nM | 639 nM | 48 nM | 253 nM | 1410 nM |  | 
11 | CNc1ncc2cc(-c3cc(C(=O)Nc4ccc(Cl)c(C(F)(F)F)c4)ccc3C)ccc2n1 | 14 nM | 133 nM | 0.5 nM | 16 nM | 3 nM |  | 86 nM
12 | Nc1ncc2cc(-c3cccc(C(=O)Nc4cccc(C(F)(F)F)c4)c3)ccc2n1 |  | 2480 nM |  |  |  |  | 
13 | CNc1ncc2cc(-c3cc(C(=O)Nc4cccc(C(F)(F)F)c4)c(F)cc3C)ccc2n1 |  | 254 nM |  |  |  |  | 
14 | Cc1ccc(C(=O)Nc2cccc(C(F)(F)F)c2C)cc1-c1ccc2nc(Nc3ccccc3)ncc2c1 | 57 nM | 44 nM | 1 nM | 46 nM | 4 nM |  | 
15 | Cc1ccccc1-c1ccc2nc(N)ncc2c1 | 3900 nM |  | 94 nM | 9820 nM | 4970 nM |  | 
16 | Cc1ccc(C(=O)Nc2cccc(C(F)(F)F)c2C)cc1-c1ccc2nc(NCCN3CCCCC3)ncc2c1 | 9 nM | 667 nM | 6 nM | > 25000 nM | 173 nM | > 200 µg/mL | 
17 | Nc1ncc2cc(-c3ccc(F)c(C(=O)Nc4cccc(C(F)(F)F)c4)c3)ccc2n1 |  | > 20000 nM |  |  |  |  | 
18 | CNc1ncc2cc(-c3cc(C(=O)Nc4cc(C(F)(F)F)ccc4N4CCN(C)C4=O)ccc3C)ccc2n1 | 4 nM | 499 nM | 2 nM | 987 nM | 461 nM |  | 
19 | CNc1ncc2cc(-c3cccc(C(=O)Nc4cccc(C(F)(F)F)c4)c3)ccc2n1 |  | 550 nM |  |  |  |  | 
20 | CNc1ncc2cc(-c3cc(NC(=O)Nc4cccc(C(F)(F)F)c4)ccc3C)ccc2n1 | 5 nM | 280 nM | 8 nM | 1140 nM | 52 nM |  | 
21 | CNc1ncc2cc(-c3cc(C(=O)Nc4ccc(OC5CCN(C)CC5)cc4)ccc3C)ccc2n1 | 93 nM | 230 nM | 1 nM | > 8330 nM | 8 nM |  | 223 nM
22 | CNc1ncc2cc(-c3cc(C(=O)Nc4cccc5c4CCC5)ccc3C)ccc2n1 | 21 nM | 1660 nM | 0.3 nM | 1340 nM | 48 nM |  | 
